# Reference: article PMC12603982 (Angewandte Chemie (International Ed. in English), 2025)
# Starred links: 1 amine or outer side, 2 acyl side, 3 side chain; linkers in the order of their positions; H or OH if unused. Positions of bridges follow the written chain, without caps; N, C: chain ends. Non-standard residues stand in square brackets, D forms with d. Residues, ends and D or L forms follow the SMILES beside them. Groups on a side chain read outwards from the residue. *: point of attachment. X1 = CCN1C(=CC=CC2=[N+](CCCCCC(=O)*)c3ccc(S(=O)(=O)O)cc3C2(C)C)C(C)(C)c2cc(S(=O)(=O)[O-])ccc21; d(εLys) = N[C@H](CCCCN[*:1])C(=O)[*:2]; X2 = O=C(CC1(S[*:2])CCCCC1)[*:1]; PEG5 = NCCOCCOCCOCCOCCOCCC(=O)O; Orn = NCCC[C@H](N)C(=O)O; Mpa = O=C(O)CCS
# Key:
# [1] = biological target: T1, hOTR-GFP in HEK293 cells (Homo sapiens, UniProt P30559); assay: Live-cell imaging (ZEISS Lattice SIM) of hOTR-GFP internalization; details: 10 and 100 nM tracer
# T1 sequence (P30559 1-389): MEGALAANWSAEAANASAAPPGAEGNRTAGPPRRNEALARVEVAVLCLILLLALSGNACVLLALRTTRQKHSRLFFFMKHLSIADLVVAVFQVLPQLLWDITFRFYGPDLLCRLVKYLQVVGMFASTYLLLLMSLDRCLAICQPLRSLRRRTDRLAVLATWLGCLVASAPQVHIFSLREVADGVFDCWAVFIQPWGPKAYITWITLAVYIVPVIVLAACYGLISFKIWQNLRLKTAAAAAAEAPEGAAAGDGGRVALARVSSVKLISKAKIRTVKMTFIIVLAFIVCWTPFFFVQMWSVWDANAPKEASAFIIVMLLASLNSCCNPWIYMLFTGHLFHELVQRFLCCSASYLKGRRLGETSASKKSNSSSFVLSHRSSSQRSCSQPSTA
# Procedure: We first exposed hOTR‐GFP cells to 10 and 100 nM of tracer (11) during acquisition with a ZEISS Lattice SIM microscope (Movies S1 and S2). […] To further disentangle the dynamics of our tracer‐mediated OTR engagement and trafficking, we evaluated its applicability in single‐particle tracking (SPT) in living cells. We cultured HEK293 (parent cells) and HEK293 cells stably expressing hOTR‐GFP (HEK293‐hOTR‐GFP) and performed total internal reflection microscopy (TIRFM) SPT universal point accumulation imaging in nanoscale topography (uPAINT) following the addition of 1 nM of tracer (10). […] This concentration was selected to facilitate the detection and tracking of single molecules of the fluorescent agonist tracer following binding to hOTR at the plasma membrane by uPAINT. […] We first assessed the number of tracks (indicative of the number of single molecules detected/tracked). […] We quantified the mean squared displacement of each trajectory to calculate its apparent diffusion coefficient. The diffusion coefficient of each trajectory of the tracer bound to hOTR was plotted as a frequency distribution (Figure 7b2 ).
# Live cell imaging. For 3D live cell imaging, attached and serum -starved HEK293-hOTR-GFP cells in 96-well
# glass bottom plates were imaged on a ZEISS Lattice SIM Microscope using a 40x oil objective and SIM 2 post- […]
# [2] = biological target: T1, hOTR-GFP in HEK293 cells; assay: hOTR-GFP internalization and tracer uptake, confocal microscopy after fixation/ICC; format: cell-based; design: expressed in transfected cells
# Source text: To validate the application scope of our tracers for biological systems and post‐hoc imaging, we used HEK293 cells stably overexpressing human OTR or V1aR, tagged with a C‐terminal fused green fluorescent protein to visualize receptor trafficking (hOTR‐GFP or hV1aR‐GFP, respectively).
# subsequently washed with PBS and processed for immunocytochemistry.
# Immunocytochemistry and imaging. Unspecific protein binding was quenched with 5% normal donkey serum
# (Jackson ImmunoResearch), 2% bovine serum albumin (Sigma-Aldrich, Merck), and 0.2% Triton X-100 (Sigma-
# Aldrich, Merck) in PBS. Next, cells were exposed to primary antibody cocktails containing FITC-conjugated goat-
# anti-GF (1:2000, Sigma-Aldrich, Merck) and mouse pCREB (1:300, Sigma-Aldrich, Merck) in PBS with 2%
# normal donkey serum, 0.1% BSA, and 0.2% Triton X-100 overnight at 4°C. After three PBS washing steps, wells
# were incubated with secondary antibody cocktails (1:400, Jackson Immuno Research) containing suitable
# were mounted with glycerol gelatin (Sigma-Aldrich, Merck) and imaged on a Zeiss LSM 780/880 confocal
# microscope (Zeiss). Images were analyzed and equally contrasted for visualization with ZEN Pro (Zeiss) and
# [3] = tested on: mouse embryonic hippocampal neurons; assay: Tracer uptake in primary mouse hippocampal neurons; format: cell-based
# Procedure: (§1) Finally, we evaluated whether tracer (11) is applicable in primary cells endogenously expressing OTR.
# (§2) Primary UtSMC and hippocampal neuronal cultures.
# (§3) Muscle Cell Basal Medium 2 (PromoCell), including supplements (PromoCell) and P/S (Gibco) at 37°C and 5%
# (§4) CO2. Cells were trypsinized with 0.1% Trypsin/EDTA (Gibco) and plated on glass -bottom 96-well plates (CellVis)
# (§5) at a density of 10,000 cells/well in full growth medium. The next day, cells were stimulated with tracer ( 11), OTA ,
# (§6) dissociated with flame -polishe d Pasteur pipettes in Hank’s balanced salt solution (HBSS, Gibco). Tissue pieces
# (§7) were subsequently enzymatically dissociated with 0.1% Trypsin/EDTA (Gibco) in Neurobasal A (NBA, Gibco)
# (§8) containing 1,000U/mL DNase (Sigma) for 5 min at 37°C. Cells were triturated with flamed Pasteur pipettes,
# (§9) filtered through a 40 µm nylon mesh ( Thermo Fisher Scientific ), centrifuged at 200 g for 5 min, and washed up to
# (§10) three times in NBA containing P/S (Gibco), GlutaMax (Gibco) , and B27 supplement (Gibco). Cells were plated at
# (§11) 20,000 cells/well on PDL -coated (Sigma) glass -bottom black 96 -well microscopy plates (Cellvis) and grown at
# (§12) 37°C with 5% CO 2. Half of the medium was replaced every 3 -4 days. After 13 -14 days in vitro , neuronal cultures
# (§13) were exposed to 100 nM tracer ( 11) for one hour, with or without 30-min pretreatment with 10 µM of the peptide
# antagonist OTA. […]
# [4] = biological target: T2, mV2R (Mus musculus, UniProt O88721); assay: Radioligand displacement, membranes of HEK293 cells transiently expressing mV2R; format: binding; details: murine receptor, transient expression; mean ± SD
# T2 construct: expressed in transfected cells; host or cells: wild-type HEK293, transient transfection (jetPRIME); membrane preparation
# Procedure: (§14) Membrane preparation for radioligand assays. HEK293 cells were used for stable expression of GFP-tagged
# (§15) human OTR, V1aR, V1bR, and V2R isoforms and transient expression of murine OTR, V1aR, V1bR, and V2R
# (§16) isoforms. Cell culture work was performed under sterile conditions with DMEM high glucose containing 10%
# (§17) FBS, and 50 U/mL P/S. Cells were cultured in 10 cm diameter cell culture dishes at 37°C in a humidified
# (§18) atmosphere with 5% CO2, and cells were passaged at 70-90% confluency.
# (§19) medium of stable cell lines at 0.5 mg/mL to sustain selection pressure, and cells were harvested at 90% confluency
# (§20) for membrane preparation. For transient expression of murine receptors, 60% confluent wild-type HEK293 cells
# (§21) were transfected using the jetPRIME transfection reagent according to the manufacturer’s protocol and harvested
# (§22) 48 h post-transfection. For membrane preparation, cells were washed with ice-cold PBS pH 7.4, scraped into fresh
# (§23) PBS on ice, and centrifuged at 4°C and 178 g for 10 min. The pellet was resuspended in a TRIS buffer solution
# (§24) The obtained solution was centrifuged for 20 min at 54,192 g and 4°C. The obtained […]
# (§25) assessed Kd values of radiotracers and by fitting the data to a three -parameter logistic Hill equation and applying […]
# (§26) concentration was determined using a Tri -Carb liquid scintillation analyzer. […]
# [5] = tested on: human uterine smooth muscle cells (UtSMC); assay: Stimulation of primary human uterine smooth muscle cells (UtSMC); format: cell-based
# Procedure: as §1, §2, §3, §4, §5, §6, §7, §8, §9, §10, §11, §12, §13
# antagonist OTA. In parallel, neurons were exposed to 100 nM of the scrambled tracer SCR for 1 h. After
# stimulations, cells were washed with ice-cold PBS and fixed with 4% paraformaldehyde for 30 min on ice. Next,
# washed again in PBS, and directly imaged on a Zeiss LSM880 confocal microscope.
# [6] = biological target: T3, hOTR (Homo sapiens, UniProt P30559); assay: Radioligand displacement and saturation binding, membranes of HEK293 cells stably expressing hOTR, [3H]-OT; details: for Ki: [3H]-OT, mean ± SD, duplicates, at least three independent experiments, read-out: Ki hOTR
# T3 construct: expressed in transfected cells
# T3 sequence (P30559 1-389): T1 sequence (P30559 1-389)
# Procedure: as §14, §15, §16, §17, §18, §19, §20, §21, §22, §23
# (§27) ice-cold water bath sonicator. The obtained solution was centrifuged for 20 min at 54,192 g and 4°C. The obtained
# (§28) pellet was resuspended in TRIS buffer without protease inhibitors, homogenized with an ultrasonicator, aliquoted,
# (§29) and stored at -80°C until further use. A BCA assay was used to determine the protein concentration of the
# (§30) Radioligand displacement and saturation experiments. Assay solutions consisting of competing ligand,
# (§31) radioligand, and membrane preparation were incubated for 1 h at 37°C. Standard binding buffer solution (50 mM
# (§32) TRIS, 5 mM MgCl2, 0.1% BSA, pH 7.4) was used to prepare all dilutions; the final assay volume was 200 µL.
# (§33) concentrations were 8 μg/vial for hOTR, 5 μg/vial for hV1aR, and 3 μg/vial for hV1bR and hV2R, respectively , and
# (§34) 4 μg/vial for mOTR, 1.5 μg/vial for m V1aR, 3 μg/vial for mV 1bR, and 10 μg/vial for mV 2R. To assess non-specific
# Specific binding was determined by
# (§35) subtraction of the non-specific binding from the total binding. In radioligand displacement experiments, semi -
# (§36) logarithmically spaced concentrations of respective test ligands were applied to determine K i values based on
# (§37) assessed Kd values of radiotracers and by fitting the data to a three -parameter logistic Hill equation and applying
# (§38) the Cheng and Prusoff approximation. 10 In case of human receptors from stable cell lines, Kd and Bmax values were
# (§39) In case of murine receptors from transient
# (§40) was performed using GraphPad Prism (version 9.5.1) . After incubation, membranes were filtered and washed on
# (§41) a Skatron Cell Harvester using polyethyleneimine -coated glass fiber filters (type B, soaked in 0.1% aqueous
# 1 mM MgCl2, pH 7.4, 4°C). The soaked filter pieces were transferred into counter vials, and 2 mL of scintillation
# cocktail (LSC Universalcocktail) was added to each vial. After 1 h incubation at 25°C on a shaker, radioligand
# concentration was determined using a Tri -Carb liquid scintillation analyzer.
# response curves were obtained from radioligand displacement experiments of membrane preparations of HEK293
# Values were normalized to the percentage
# of maximum binding (i.e., no competing ligand present). Specific binding was obtained from the subtraction of
# non-specific binding from total binding. K i values were derived from one-site-fitted competition binding curves.
# [7] = biological target: T4, hV2R (Homo sapiens, UniProt P30518); assay: Radioligand displacement and saturation binding, membranes of HEK293 cells stably expressing hV2R, [3H]-VP; details: read-out: Ki hV2R
# T4 construct: expressed in transfected cells; membrane preparation
# Procedure: as §14, §15, §16, §17, §18, §19, §20, §21, §22, §23
# (§42) ice-cold water bath sonicator. The obtained solution was centrifuged for 20 min at 54,192 g and 4°C. The obtained […]
# Specific binding was determined by […]
# as §25, §26
# [8] = tested on: rat embryonic hippocampal neurons; assay: Tracer uptake in primary rat hippocampal neurons; format: cell-based; details: 10 µM, 30 min
# Procedure: as §1, §2, §3, §4, §5, §6, §7, §8, §9, §10, §11, §12, §13
# antagonist OTA. […]
# [9] = biological target: T5, mV1bR (Mus musculus, UniProt Q9WU02); assay: Radioligand displacement, membranes of HEK293 cells transiently expressing mV1bR; format: binding; details: murine receptor, transient expression; mean ± SD
# T5 construct: expressed in transfected cells; host or cells: wild-type HEK293, transient transfection (jetPRIME); membrane preparation
# T5 sequence (Q9WU02 1-421): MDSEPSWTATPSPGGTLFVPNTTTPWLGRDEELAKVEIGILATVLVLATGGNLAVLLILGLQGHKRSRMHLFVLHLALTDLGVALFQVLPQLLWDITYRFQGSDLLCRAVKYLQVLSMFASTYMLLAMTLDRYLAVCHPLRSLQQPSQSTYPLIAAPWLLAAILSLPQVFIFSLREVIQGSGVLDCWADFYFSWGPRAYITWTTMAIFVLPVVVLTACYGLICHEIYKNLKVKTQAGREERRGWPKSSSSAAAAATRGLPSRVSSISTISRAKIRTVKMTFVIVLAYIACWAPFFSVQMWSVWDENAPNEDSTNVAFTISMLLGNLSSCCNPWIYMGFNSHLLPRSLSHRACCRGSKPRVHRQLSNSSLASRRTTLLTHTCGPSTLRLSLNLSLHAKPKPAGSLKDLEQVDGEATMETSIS
# Procedure: as §14, §15, §16, §17, §18, §19, §20, §21, §22, §23, §24, §25, §26
# [10] = biological target: T6, mV1aR (Mus musculus, UniProt Q62463); assay: Radioligand displacement, membranes of HEK293 cells transiently expressing mV1aR; format: binding; details: murine receptor, transient expression; mean ± SD
# T6 construct: expressed in transfected cells; host or cells: wild-type HEK293, transient transfection (jetPRIME); membrane preparation
# Procedure: as §14, §15, §16, §17, §18, §19, §20, §21, §22, §23, §24, §25, §26
# [11] = biological target: T7, hV1aR (Homo sapiens, UniProt P37288); assay: Radioligand displacement and saturation binding, membranes of HEK293 cells stably expressing hV1aR, [3H]-VP; details: read-out: Ki hV1aR
# T7 construct: expressed in transfected cells
# Procedure: as §14, §15, §16, §17, §18, §19, §20, §21, §22, §23, §42
# Specific binding was determined by […]
# as §25, §26
# [12] = biological target: T8, hV1bR (Homo sapiens, UniProt P47901); assay: Radioligand displacement and saturation binding, membranes of HEK293 cells stably expressing hV1bR, [3H]-VP; details: read-out: Ki hV1bR
# T8 construct: expressed in transfected cells; membrane preparation
# T8 sequence (P47901 1-424): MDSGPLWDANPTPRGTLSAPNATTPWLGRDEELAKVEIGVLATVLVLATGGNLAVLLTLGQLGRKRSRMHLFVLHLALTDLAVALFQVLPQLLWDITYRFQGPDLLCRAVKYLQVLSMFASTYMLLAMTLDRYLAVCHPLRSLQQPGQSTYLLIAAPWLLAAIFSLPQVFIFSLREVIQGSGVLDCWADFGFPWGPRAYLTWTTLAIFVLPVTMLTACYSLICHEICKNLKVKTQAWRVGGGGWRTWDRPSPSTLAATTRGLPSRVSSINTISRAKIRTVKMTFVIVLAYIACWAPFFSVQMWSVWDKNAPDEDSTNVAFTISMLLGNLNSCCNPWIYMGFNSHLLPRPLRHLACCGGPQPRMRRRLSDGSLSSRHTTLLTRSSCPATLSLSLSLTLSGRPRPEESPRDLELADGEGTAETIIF
# Procedure: as §14, §15, §16, §17, §18, §19, §20, §21, §22, §23, §42
# Specific binding was determined by […]
# as §25, §26
# [13] = biological target: T9, mOTR (Mus musculus, UniProt P97926); assay: Radioligand displacement, membranes of HEK293 cells transiently expressing mOTR; format: binding, murine
# T9 construct: expressed in transfected cells; host or cells: wild-type HEK293, transient transfection (jetPRIME); membrane preparation
# T9 sequence (P97926 1-388): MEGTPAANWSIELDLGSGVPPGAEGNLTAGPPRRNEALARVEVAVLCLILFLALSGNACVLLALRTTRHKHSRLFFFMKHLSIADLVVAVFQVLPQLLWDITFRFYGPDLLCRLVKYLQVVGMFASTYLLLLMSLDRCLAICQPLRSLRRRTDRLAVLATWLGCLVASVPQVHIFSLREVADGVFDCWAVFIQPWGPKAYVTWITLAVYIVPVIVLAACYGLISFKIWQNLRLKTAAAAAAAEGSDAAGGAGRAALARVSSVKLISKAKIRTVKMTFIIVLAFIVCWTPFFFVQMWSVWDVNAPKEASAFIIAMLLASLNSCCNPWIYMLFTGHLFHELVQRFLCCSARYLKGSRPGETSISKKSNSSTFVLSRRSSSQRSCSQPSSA
# Procedure: as §14, §15, §16, §17, §18, §19, §20, §21, §22, §23, §27, §28, §29, §30, §31, §32, §33, §34
# Specific binding was determined by
# as §35, §36, §37, §38, §39, §40, §41
# 1 mM MgCl2, pH 7.4, 4°C). […]
# as §26
# T2 sequence (O88721 whole entry): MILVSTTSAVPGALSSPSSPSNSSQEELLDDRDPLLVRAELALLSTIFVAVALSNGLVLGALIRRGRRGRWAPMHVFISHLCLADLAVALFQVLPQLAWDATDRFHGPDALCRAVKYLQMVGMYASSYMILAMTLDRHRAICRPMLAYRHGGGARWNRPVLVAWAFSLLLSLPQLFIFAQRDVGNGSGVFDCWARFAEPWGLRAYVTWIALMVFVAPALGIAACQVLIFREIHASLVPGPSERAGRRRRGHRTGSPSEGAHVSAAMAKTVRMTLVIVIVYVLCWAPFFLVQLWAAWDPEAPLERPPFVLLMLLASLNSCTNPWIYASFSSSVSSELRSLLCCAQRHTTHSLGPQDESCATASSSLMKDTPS
# T7 sequence (P37288 whole entry): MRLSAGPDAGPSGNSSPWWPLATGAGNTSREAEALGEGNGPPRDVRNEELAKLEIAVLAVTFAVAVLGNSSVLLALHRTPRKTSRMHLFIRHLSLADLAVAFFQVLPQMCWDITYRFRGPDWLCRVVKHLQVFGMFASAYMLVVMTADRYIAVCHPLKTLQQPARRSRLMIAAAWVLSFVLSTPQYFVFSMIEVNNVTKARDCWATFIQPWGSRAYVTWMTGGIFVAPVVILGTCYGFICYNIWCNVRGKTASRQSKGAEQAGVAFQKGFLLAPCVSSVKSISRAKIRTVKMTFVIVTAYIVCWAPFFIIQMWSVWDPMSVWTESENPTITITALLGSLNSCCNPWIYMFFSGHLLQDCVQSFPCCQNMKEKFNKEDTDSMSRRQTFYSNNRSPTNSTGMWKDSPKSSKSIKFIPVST
# T6 sequence (Q62463 whole entry): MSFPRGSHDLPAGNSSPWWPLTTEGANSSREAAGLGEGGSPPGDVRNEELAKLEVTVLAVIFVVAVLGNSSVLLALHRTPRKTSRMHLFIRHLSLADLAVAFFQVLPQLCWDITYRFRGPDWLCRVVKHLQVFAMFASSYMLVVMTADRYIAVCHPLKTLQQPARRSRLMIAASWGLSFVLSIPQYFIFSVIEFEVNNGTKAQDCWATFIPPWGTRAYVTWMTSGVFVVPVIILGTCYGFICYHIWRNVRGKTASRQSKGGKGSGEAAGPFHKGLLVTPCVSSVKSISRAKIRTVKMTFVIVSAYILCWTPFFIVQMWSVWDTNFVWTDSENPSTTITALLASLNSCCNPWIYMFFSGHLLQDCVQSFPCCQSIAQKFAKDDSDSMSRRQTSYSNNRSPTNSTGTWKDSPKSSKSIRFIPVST
# T4 sequence (P30518 whole entry): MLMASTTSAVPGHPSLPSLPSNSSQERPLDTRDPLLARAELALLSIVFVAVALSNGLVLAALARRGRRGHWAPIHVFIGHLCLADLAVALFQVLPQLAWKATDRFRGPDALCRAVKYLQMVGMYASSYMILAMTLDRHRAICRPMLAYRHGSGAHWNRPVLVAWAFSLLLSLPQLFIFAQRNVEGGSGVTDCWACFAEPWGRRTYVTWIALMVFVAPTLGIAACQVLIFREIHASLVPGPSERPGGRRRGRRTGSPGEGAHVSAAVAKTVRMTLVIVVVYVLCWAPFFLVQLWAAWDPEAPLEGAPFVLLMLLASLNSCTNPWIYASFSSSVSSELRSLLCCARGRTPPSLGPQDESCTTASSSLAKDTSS
smiles,measurement,setting,value
CC[C@H](C)[C@@H]1NC(=O)[C@H](Cc2ccc(O)cc2)NC(=O)CCSSC[C@@H](C(=O)N2CCC[C@H]2C(=O)N[C@@H](CCCNC(=O)[C@@H](CC(=O)O)NC(=O)CCOCCOCCOCCOCCOCCNC(=O)[C@H](N)CCCCNC(=O)CCCCC[N+]2=C(C=CC=C3N(CC)c4ccc(S(=O)(=O)[O-])cc4C3(C)C)C(C)(C)c3cc(S(=O)(=O)O)ccc32)C(=O)NCC(N)=O)NC(=O)[C@H](CC(N)=O)NC(=O)[C@H](CCC(N)=O)NC1=O [Compound 11] ([Mpa]YIQNCP[Orn]([dD-PEG5-d(εLys)-X1])G-NH2; disulfide 1-6),Time to peak internalization,[1],5 to 10 min
same,Cy3s signal accumulation in hOTR-expressing cells,"[2]; post ICC, normalized to control",significant concentration‐dependent accumulation
same,Tracer uptake in mouse hippocampal neurons,"[3]; 100 nM, 1 h, E16.5 neurons cultured 14 days",robust uptake in subpopulations of neurons
same,Ki,[4],> 10 µM
same,Contraction of UtSMC,"[5]; 100 nM, live-cell imaging",induced rapid contractions within minutes
same,Tracer uptake in UtSMC,[5]; 60 min treatment,accumulation was observed in vesicle‐like structures within 60 min
same,Ki,[6],0.002 µM
"CC[C@H](C)[C@@H]1NC(=O)[C@@H](Cc2ccc(O)cc2)NC(=O)CC2(CCCCC2)SSC[C@@H](C(=O)N2CCC[C@H]2C(=O)N[C@@H](CCCN)C(=O)O)NC(=O)[C@H](CC(N)=O)NC(=O)[C@H]([C@@H](C)O)NC1=O [OTR antagonist (OTA), reference compound] ([dY]ITNCP[Orn]-OH; linker N-5 via X2)",Ki,[7],> 10 µM
same,Effect of OTA pretreatment on tracer (11) uptake in rat hippocampal neurons,[8],prevented compound (11) internalization
same,Effect of antagonist pretreatment on hOTR-GFP internalization and accumulation of tracers (3) and (7),"[2]; 10 µM, 30 min before 1 h stimulation with 100 nM tracer",prevented hOTR‐GFP internalization and cytoplasmic accumulation
same,Effect of antagonist pretreatment on tracer (11) uptake,"[2]; 10 µM, 30 min pretreatment",completely prevented tracer (11) uptake
same,Effect of antagonist pretreatment on tracer (13) uptake and GFP internalization,"[2]; 10 µM, 30 min pretreatment, tracer (13) up to 100 nM",completely prevented
same,Ki,[9],> 10 µM
same,Ki,[10],> 10 µM
same,Effect of OTA pretreatment on tracer (11) uptake in mouse hippocampal neurons,"[3]; 10 µM, 30 min",completely inhibited the uptake
same,Ki,[11],0.0458 ± 0.0119 µM
same,Ki,[12],> 10 µM
same,Ki,[4],3.01 ± 0.346 µM
same,Effect of OTA pretreatment on tracer (11) in UtSMC,[5],prevented tracer uptake as well as cellular contractions and membrane blebbing
same,Selectivity ratio mV1aR/mOTR,[13]; Ki ratio,>1500
same,Selectivity ratio mV1bR/mOTR,[13]; Ki ratio,>1500
same,Selectivity ratio mV2R/mOTR,[13]; Ki ratio,510
same,Ki,"[13]; murine receptor, transient expression, mean ± SD",0.0059 ± 0.0017 µM
same,Selectivity ratio hV1aR/hOTR,"[6]; Ki ratio, VPR affinity divided by OTR affinity",1.02
same,Ki,[6],0.0449 ± 0.0088 µM
